Counter-ions that a name gives are not always drawn.

The subject of data set [1] is MCPP-induced Hypolocomotion. In words: Reversal of MCPP-induced hypolocomotion. In kind it is in vivo. The note with it: po, procedure of WO 94/04533, read-out: ID50 (the source's name). An excerpt: Reversal of MCPP-induced Hypolocomotion

For orientation: melting point means the temperature of the solid-liquid transition. For the molecule `COc1cc2c(cc1C(F)(F)F)N(C(=O)Nc1ccc(OCc3ccncc3)nc1)CC2` [Example 55, 5-Methoxy-6-trifluoromethyl-1-[6-(pyridin-4-ylmethyloxy)pyridin-3-ylcarbamoyl]indoline], the melting point was in the range of 187 to 189 °C. Also, the ED50 in data set [1] was 0.5 to 5.5 mg/kg.
Take `COc1cc2c(cc1C(F)(F)F)N(C(=O)Nc1cccc(-c3cccnc3)c1)CC2` [Example 1]: in data set [1], the ED50 was in the range of 0.5 to 5.5 mg/kg.
As to `COc1cc2c(cc1C(F)(F)F)N(C(=O)Nc1cc(F)cc(-c3cncnc3)c1)CC2` [Example 78, 1-[3-Fluoro-5-(pyrimidin-5-yl)phenylcarbamoyl]-5-methoxy-6-trifluoromethyl Indoline], in data set [1], the ED50 fell in the range of 0.5 to 5.5 mg/kg.
On the same count and under the same terms, with `COc1cc2c(cc1C(F)(F)F)N(C(=O)Nc1ccc(Cl)c(-c3cnccc3C)c1)CC2` [Example 79, 1-(4-Chloro-3-(4-methyl-3-pyridyl)phenylcarbamoyl]-5-methoxy-6-trifluoromethylindoline] the figure was 0.5 to 5.5 mg/kg.
For `COc1ccc(NC(=O)N2CCc3cc(OC)c(C(F)(F)F)cc32)cc1-c1cccnc1` [Example 31, 1-[4-Methoxy-3(pyrid-3-yl)phenylcarbamoyl]-5-methoxy-6-trifluoromethylindoline], the ED50 in data set [1] was 0.5 to 5.5 mg/kg.
Consider `COc1cc2c(cc1C(F)(F)F)N(C(=O)Nc1cc(F)cc(-c3cccnc3)c1)CC2` [Example 8, 1-[3-Fluoro-5-(3-pyridyl)phenylcarbamoyl]-5-methoxy-6-trifluoromethyl Indoline], for which the ED50 in data set [1] was in the range of 0.5 to 5.5 mg/kg.
For `COc1cc2c(cc1C(F)(F)F)N(C(=O)Nc1cc3c(c(-c4cccnc4)c1)OCC3)CC2` [Example 80, 1-[2,3-Dihydro-7-(pyrid-3-yl)benzofuran-5-ylcarbamoyl]-5-methoxy-6-trifluoromethyl Indoline], the ED50 in data set [1] was in the range of 0.5 to 5.5 mg/kg.
Turning to `CSc1cc2c(cc1C(F)(F)F)N(C(=O)Nc1cc(F)cc(-c3cccnc3)c1)CC2` [Example 25, 1-(3-Fluoro-5-(pyrid-3-yl)phenylcarbamoyl)5-thiomethyl-6-trifluoromethyl-indoline Hydrochloride], in data set [1], the ED50 is 0.5 to 5.5 mg/kg.
With `COc1cc2c(cc1C(F)(F)F)N(C(=O)Nc1cccc(-c3cncnc3)c1)CC2` [Example 40, 1-[3-(5-Pyrimidyl)phenylcarbamoyl]-5-methoxy-6-trifluoromethyl-indoline], in data set [1], the ED50 was in the range of 0.5 to 5.5 mg/kg.
On to `COc1cc2c(cc1C(F)(F)F)N(C(=O)Nc1ccc3c(ccn3-c3ccncc3)c1)CC2` [Example 59, 1-(1-(4-Pyridyl)-5-indolylcarbamoyl)-5-methoxy-6-trifluoromethylindoline], for which the melting point was 206 to 211 °C.
On the same count and under the same terms, the value for `COc1cc2c(cc1C(F)(F)F)N(C(=O)Nc1ccnc(Oc3cccnc3)c1)CC2` [Example 64] was 223 to 225 °C.
The same measure, in the same setting: with `CSc1cc2c(cc1C(F)(F)F)N(C(=O)Nc1ccc(C(=O)NCc3cccnc3)cc1)CC2` [Example 68, 5-Methylthio-6-trifluoromethyl-1-[4-(pyrid-3-ylmethyl)amido Phenyl Carbamoyl]indoline] the figure was over 250 °C.
Still for that read-out and setting: the value for `Cc1cc2c(cc1Cl)N(C(=O)Nc1cc(F)cc(-c3cccnc3C)c1)CC2` [Example 134] was 205 to 206 °C.
On to `COc1cc2c(cc1C(F)(F)F)N(C(=O)Nc1cccc(OCc3cccnc3)c1)CC2` [Example 137], for which the melting point lay in the range of 202 to 204 °C.
On to `COc1cc2c(cc1C(F)(F)F)N(C(=O)Nc1ccc(-c3cccnc3)cn1)CC2` [Example 95], for which the melting point is over 225 °C.
The same measure, in the same setting: the value for `COc1cc2c(cc1C(F)(F)F)N(C(=O)Nc1cccc(-c3cncnc3)c1)CC2` [Example 119] was 245 to 250 °C; that for `COc1cc2c(cc1C(F)(F)F)N(C(=O)Nc1ccc(Oc3ccccc3C(F)(F)F)nc1)CC2` [Example 164] was 237 to 238 °C; that for `COc1cc2c(cc1C(F)(F)F)N(C(=O)Nc1ccc(Oc3ccc(C)cc3C)nc1)CC2` [Example 160] was 236 to 238 °C.

Source of the values: patent US6638953B2, “Indole derivatives as 5-HT receptor antagonist” (SmithKline Beecham p.l.c., priority 1995, dated 2003).
